Experimental data reported in patent US20090312373A1, “METHODS FOR THE TREATMENT OF CANCER USING PIPERLONGUMINE AND PIPERLONGUMINE ANALOGS” (The General Hospital Corporation, priority 2008, published 2009).

What was measured:
breast cancer tumors = experiment: Breast tumor in mice; format: in vivo, mouse
Protocol: We tested piperlongumine in colon tumor, breast, melanoma or bladder tumor xenograft-bearing mice to evaluate the anti-tumor effect of piperlongumine. We examined EJ human bladder cancer cell xenografts (non-functional p53) to evaluate anti-tumor effects. A total of 2×10^6 EJ cells or SW480 cells were implanted subcutaneously on opposite site flanks in each of six nude/nude mice in each group. When tumor masses grew to ˜5-10 mm in diameter, piperlongumine was administered intraperitoneally (28 ug per each intraperitoneal administration, total 1.2 mg/kg) every 48 hours for 12 days (6 times total).

lung cancer tumors = experiment: Lung tumor model in mice; format: in vivo, mouse
[1] = test system: drug-resistant A549 lung cancer cell lines; experiment: Tumor cell killing in drug-resistant A549 lung cancer cell lines; format: cell-based, human
Protocol: The tumor growth inhibitory effect of piperlongumine was evaluated in a variety of human cancer cell lines. Cells were grown in ˜50-70% confluency and treated with piperlongumine and known anti-cancer agents at various concentrations (0.1-30 μM) and analyzed for cell death or viability by SRB (Sulforhodamine B) staining assay. The SRB assay is a well established assay that is used for the detection of cell death, viability or proliferation in drug screening.
Tumor cell killing by piperlongumine was also tested in drug-resistant A549 lung cancer cell lines and compared to known anti-cancer agents (see FIG. 19).

[2] = test system: EJ bladder carcinoma cells and HCT116 colon carcinoma cells; experiment: Cell death in transformed cancer cells; format: cell-based, human; conditions: 2.5 μM and 10 μM
[3] = test system: p120ctn/vimentin/N-cadherin complex; experiment: Vimentin immunoprecipitation / p120ctn Western blot in EJ cells; format: cell-based, human; conditions: 10 μM
Protocol: It is well-established that Twist plays a major role in tumor development and metastasis. Thus, we investigated whether piperlongumine (SP2007) mechanistically regulates a key signaling pathway involving a complex of p120ctn/vimentin/N-cadherin which is a Twist target that promotes tumor cell migration and invasion/metastasis. EJ cells were treated with 10 μM piperlongumine or vehicle for 20 hours and cell lysates were subsequently immunoprecipitated by Vimentin antibody (Sigma Aldrich, St. Louis, Mo.) followed by western blot against p120ctn to analyze the association of the p120ctn/vimentin/N-cadherin complex.
EJ cells were treated with piperlongumine (SP2007) (10 μM) for 12 hours. Subsequently the cells were harvested and subjected to immunoprecipitations using vimentin antibodies (Sigma Aldrich) to precipitate the vimentin complex. Western blots were performed for p120 CTN and vimentin. DMSO (D) treated cells were used as control IP experiments.

[4] = test system: Twist, N-cadherin and p120 catenin; experiment: Western blot of Twist, N-cadherin and p120 catenin in EJ and U2OS cells; format: cell-based, human; conditions: 10 μM and 20 μM, 20 hours
Protocol: (§1) A scheme for piperlongumine (SP2007)-mediated repression of Twist expression and its downstream targets that are involved in tumor invasion/metastasis is presented in FIG. 39A. […] U2OS and EJ cells were treated with SP2007 at two concentrations (10 μM and 20 μM) as well as with DMSO as a solvent control. After 20 hours, cell lysates were extracted and western blotting was performed against Twist, N-cadherin and p120 catenin (Zymed and Sigma Aldrich). […] Female MMTV-PyVT mice at 8-9 weeks age were chosen for the studies. When tumor sizes grew to ˜5-6 mm in diameter, SP2007 or DMSO was administered intraperitoneally (I.P., total 2.4 mg/kg of SP2007) daily for two weeks. After two weeks treatment, mice were sacrificed and mammary tumors excised and processed for histological examination.

Twist and N-cadherin = experiment: Histological examination of Twist and N-cadherin in MMTV-PyVT mammary tumors; format: in vivo, mouse; conditions: i.p. total 2.4 mg/kg daily for two weeks
Protocol: as §1

[5] = test system: EJ bladder carcinoma and U2OS osteosarcoma cell lines; experiment: DNA damage in EJ bladder carcinoma and U2OS osteosarcoma cell lines; format: cell-based, human
Source text: The conditions and time of exposure are indicated in the legend of the figure.

COc1cc(/C=C/C(=O)N2CCC=CC2=O)cc(OC)c1OC [piperlongumine, N-(3,4,5,-trimethoxycinnamoyl)-Δ^3-piperidine-2-one]
killing of breast cancer tumors (breast cancer tumors): effective killing | killing of lung cancer tumors (lung cancer tumors): effective killing | tumor cell growth inhibition compared to other anti-cancer drugs [1]: more effective | cell death in transformed cancer cells [2]: induced cell death | p120 in the complex precipitated with vimentin ([3]; 12 hours): p120 was not in the complex | association of the p120ctn/vimentin/N-cadherin complex ([3]; 20 hours): dissociation | expression of Twist, N-cadherin and p120 catenin [4]: inhibits expression | N-cadherin expression in mammary tumors (Twist and N-cadherin): inhibits N-cadherin expression | Twist expression in mammary tumors (Twist and N-cadherin): inhibits Twist expression | DNA damage (phosphorylated gamma-H2AX levels) [5]: results in the induction of DNA damage
